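Compound exposure: 48 hours, 5 concentrations, 96-well plates. Abbreviation: GI50, concentration required for 50% inhibition of growth. At the TGI there is no net growth.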

Assay in all cases: NCI tumour cell line growth inhibition, 48 h
Experiment [1] relates to CCRF-CEM leukemia.
The test system of experiment [2] is HOP-62 NSCLC.
Experiment [3] deals with K-562 leukemia.
The test system of experiment [4] is EKVX NSCLC.
Experiment [5] has as its system COLO 205 colon.
In experiment [6] the test system is OVCAR-4 ovarian.
Experiment [7] concerns NCI-H460 lung.
In experiment [8] the test system is CAKI-1 renal.
Experiment [9] deals with NCI-H226 lung.
Experiment [10] concerns M14 melanoma.

Regarding `Cc1ccc2c(c1)ncn2-c1ncnc2c1CC(C)c1ccccc1N2C` (stereo not given), the GI50 is 0.046 µM in [1]; 0.174 µM in experiment [2]; 0.0399 µM in [3]; 0.154 µM in experiment [4]; 0.198 µM in experiment [5]; 0.624 µM in experiment [6]. In addition, the GI50 in experiment [7] is 0.225 µM; in experiment [8], 0.127 µM; in experiment [9], 1.21 µM; in [10], 0.0587 µM. Besides, the TGI in [1] was determined as 10.5 µM; in experiment [2], 13.6 µM; in experiment [3] it was 11.2 µM; in experiment [4] it was 18 µM; in experiment [5], 0.666 µM; in experiment [6] it was 24.7 µM. Also, the TGI in [7] was determined as 11.3 µM; in experiment [8], 13.7 µM; in experiment [9] it was 18.7 µM; in [10], 14.1 µM.
Take `Cn1cc(-c2ccc3c(c2)CCN3C(=O)Cc2cccc(C(F)(F)F)c2)c2c(N)ncnc21`: the GI50 in experiment [1] is 3.94 µM; in experiment [2], 8.17 µM; in experiment [3], 2.22 µM; in experiment [4], 8.7 µM; in [5], 4.23 µM; in experiment [6], 2.41 µM. The GI50 in [7] is 3.85 µM; in [8], 1.52 µM; in experiment [9], 3.85 µM; in [10], 1.7 µM. For the same molecule, the TGI is over 100 µM in experiment [1]; 29.2 µM in experiment [2]; 20.6 µM in [3]; 29 µM in experiment [4]; 17.9 µM in experiment [5]; over 100 µM in [6]. In addition, the TGI in experiment [7] came to 19.7 µM; in [8], 40.3 µM; in experiment [9] it was 19.1 µM; in experiment [10] it was 16.2 µM.
On to `O=C1c2ccccc2C(=O)C1C(c1ccc([N+](=O)[O-])cc1)C1C(=O)c2ccccc2C1=O`, for which the TGI in experiment [1], in [2], in experiment [3], in experiment [4], in [5] and in experiment [6] was over 100 µM throughout. For the same molecule, the TGI in experiment [7] is over 100 µM; in experiment [8], 95 µM; in [9] it was over 100 µM; in experiment [10], over 100 µM.
As for `CCO[C@@H]1C2C=CC(C2)[C@H]1[N+](=O)[O-]` (stereo not given in full), the TGI in [1], in [2], in [3], in experiment [4], in experiment [5] and in experiment [6] was over 100 µM in each case. The TGI in experiment [7], in experiment [8], in experiment [9] and in experiment [10] was over 100 µM each time.
As to `COc1cc(/C=C(/c2ccccc2)[N+](=O)[O-])c(OC)c2c1OCO2`, the GI50 was 0.522 µM in experiment [1]; 2.32 µM in [2]; 0.373 µM in experiment [3]; 1.69 µM in [4]; 1.98 µM in [5]; 1.74 µM in experiment [6]. In addition, the GI50 was 1.87 µM in experiment [7], 1.76 µM in experiment [8], 1.79 µM in experiment [9] and 1.56 µM in [10]. Further, the TGI is over 100 µM in experiment [1]; 5.12 µM in experiment [2]; 13.7 µM in experiment [3]; 3.32 µM in experiment [4]; 4.25 µM in [5]; 3.15 µM in experiment [6]. In addition, the TGI in experiment [7] was 3.58 µM; in experiment [8], 3.95 µM; in experiment [9], 3.46 µM; in experiment [10], 3.3 µM.
For the molecule `CCSc1nc(COC(=O)NC)c(COC(=O)NC)n1C`, the TGI was over 100 µM in experiment [1]; over 100 µM in experiment [2]; over 68.1 µM in [3]; over 100 µM in experiment [4]; over 85.1 µM in [5]; over 84.7 µM in [6]. Moreover, the TGI in [7] is over 100 µM; in experiment [8] it was over 78.2 µM; in [9], over 100 µM; in [10] it was over 83 µM.
As for `CCOC(=O)N1C2C=C(C)C(C3C(C)C(=O)N31)N(C(=O)c1ccccc1)O2` (stereo not given), the TGI in experiment [1], in experiment [2], in experiment [3], in experiment [4], in [5] and in experiment [6] was over 100 µM each time. The TGI in experiment [7], in experiment [8], in experiment [9] and in experiment [10] was over 100 µM in each case.
As to `Clc1ccc(CN2COc3c(cc(Cl)c4cccnc34)C2)cc1`, the TGI in experiment [1] is 4.94 µM; in [2], 3.35 µM; in experiment [3], 3.74 µM; in experiment [4] it was 14.2 µM; in [5] it was 31.7 µM; in [6], 8.26 µM. Also, the TGI in [7] is 9.19 µM; in experiment [8], 12.6 µM; in experiment [9] it was 8.67 µM; in experiment [10] it was 3.82 µM.

Values taken from PubChem BioAssay (NCI).
